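Values below derive from 48-hour exposures of cells grown in 96-well plates, with endpoints linearly interpolated between the two concentrations bracketing the appropriate inhibition level. Here, GI50 denotes the concentration required for 50% inhibition of growth. TGI marks complete inhibition of growth.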

As usually defined, the TGI is the concentration giving total growth inhibition. Lower therefore signals more potent growth arrest. The GI50 is the concentration that inhibits growth by half.

Test in all cases: DTP human tumour cell line panel, 48 h
Assay [1] relates to MALME-3M melanoma.
The test system of assay [2] is HT29 colon.
Assay [3] deals with K-562 leukemia.
Assay [4] deals with SK-MEL-5 melanoma.
The test system of assay [5] is NCI-H226 lung.
In assay [6] the test system is HCT-15 colon.
For assay [7], the system named is OVCAR-4 ovarian.
Assay [8] relates to SF-295 CNS.
Assay [9] deals with EKVX NSCLC.
Assay [10] relates to HOP-92 NSCLC.

Take `c1ccc2c(c1)c1c3n2-c2cc(on2)C3CCC1` (configuration not stated): the total growth inhibition concentration (TGI) in [1], in assay [2], in assay [3], in assay [4], in assay [5] and in assay [6] was above 100 µM in each case. Further, the concentration for total growth inhibition (TGI) in assay [7], in assay [8], in assay [9] and in assay [10] was above 100 µM throughout.

Take `COc1ccccc1N1C(=O)/C(=C\c2cccc(Oc3ccccc3)c2)S(=O)(=O)C1c1ccccc1` (configuration not stated): the concentration for total growth inhibition (TGI) in [1] is above 100 µM; in assay [3], above 100 µM; in assay [4], 53.7 µM; in assay [5], above 100 µM; in assay [6] it was above 100 µM; in assay [7], above 100 µM. Also, the concentration for total growth inhibition (TGI) in [8], in [9] and in assay [10] was above 100 µM in each case.

As for `COc1cc(-c2[o+]c3cc(O)cc(OC4OC(CO)C(O)C(O)C4O)c3cc2OC2OC(CO)C(O)C(O)C2O)cc(OC)c1O` (configuration not stated), the TGI in assay [1], in assay [2], in assay [3], in assay [4], in assay [5] and in [6] was above 100 µM in each case. Further, the TGI in assay [7], in assay [8], in [9] and in assay [10] was above 100 µM in each case.

Regarding `COc1cc(C2(C)SCCCS2)c(I)c(OC)c1OC`, the concentration for total growth inhibition (TGI) in [1], in assay [2], in [3], in assay [4], in [5] and in assay [6] was above 100 µM in each case. The TGI in assay [7], in assay [8], in [9] and in assay [10] was above 100 µM in each case.

On to `Cn1c(=O)c2[nH]c(CCC(=O)O)nc2n(C)c1=O`, for which the TGI in assay [1], in assay [2], in [3], in [4], in [5] and in assay [6] was above 100 µM throughout. In addition, the TGI in [7], in assay [8], in assay [9] and in assay [10] was above 100 µM throughout.

As to `NC1CCCCC1N.O=S(=O)([O-])CCCN1CCN(CCO)CC1.O=S(=O)([O-])CCCN1CCN(CCO)CC1.[Pt+4]`, the GI50 is 3.08 µM in [1]; 0.945 µM in assay [2]; 4.81 µM in [3]; 2.57 µM in assay [4]; 5.26 µM in [5]; 2.63 µM in assay [6]. Besides, the GI50 in [7] is 1.63 µM; in assay [8], 4.1 µM; in assay [9], 55.4 µM; in assay [10] it was 19 µM. Moreover, the concentration for total growth inhibition (TGI) was 28.3 µM in [1]; above 22.1 µM in [2]; 44.8 µM in assay [3]; 17.2 µM in [4]; above 100 µM in [5]; above 61.4 µM in assay [6]. Moreover, the TGI is 19.2 µM in assay [7], above 100 µM in assay [8], above 100 µM in assay [9] and 59.3 µM in assay [10].

Turning to `CC1(C)N=C(N)N=C(N)N1c1ccc(OCCCOc2ccccc2)c(Cl)c1`, the TGI is 14.5 µM in [1]; 10.5 µM in assay [2]; above 42.8 µM in [3]; 3 µM in [4]; 15.4 µM in [5]; above 100 µM in assay [6]. Also, the TGI was 14.2 µM in assay [7], above 43.7 µM in assay [8], 14.4 µM in assay [9] and 3.83 µM in assay [10].

`O=C1OC2C=CC1C1(CCOC1=O)C2` (configuration not stated): the total growth inhibition concentration (TGI) in [1], in [3], in assay [4], in assay [5], in [6] and in [7] was above 100 µM throughout. For the same compound, the concentration for total growth inhibition (TGI) in assay [9] and in [10] was above 100 µM each time.

Take `Cc1cc(C)c2c(c1)CC1(Cc3c(C)cc(C)cc3C1=O)C2=O` (configuration not stated): the TGI in assay [1], in [3], in [4], in [5], in assay [6] and in assay [7] was above 100 µM throughout. Moreover, the total growth inhibition concentration (TGI) in [8], in [9] and in assay [10] was above 100 µM throughout.

As for `C/C(=C\CNc1nc(Cl)nc2nc[nH]c12)CO`, the total growth inhibition concentration (TGI) in assay [1], in [2], in assay [3], in [4], in assay [5] and in [7] was above 100 µM throughout. Moreover, the TGI in assay [8], in [9] and in assay [10] was above 100 µM each time.

Take `CC(C)CC(NC(=O)C(COc1ccc([N+](=O)[O-])cc1)Cc1ccccc1)C(=O)Nc1ccccc1` (configuration not stated): the total growth inhibition concentration (TGI) was 18 µM in [1]; above 100 µM in assay [3]; above 100 µM in [4]; 16.1 µM in [5]; above 100 µM in assay [6]; 8.33 µM in [7]. Moreover, the TGI in [8] is 26.2 µM; in [9], 91.4 µM; in [10], 34.2 µM.

Consider `Cn1c(=O)c2sc3cc4c(cc3c2c2ccccc21)sc1c(=O)n(C)c2ccccc2c14`, for which the concentration for total growth inhibition (TGI) in assay [1], in [2], in assay [4], in assay [5], in assay [6] and in assay [7] was above 100 µM throughout. In addition, the total growth inhibition concentration (TGI) in assay [8] is 42.6 µM; in [9], above 100 µM; in [10], 99.1 µM.

Turning to `C=CCn1c(=O)c2ccccc2[n+]2c(-c3cccc([N+](=O)[O-])c3)csc12`, the TGI in assay [1] was above 100 µM; in assay [2], above 100 µM; in [3], above 100 µM; in assay [4], 36.5 µM; in [5] it was above 100 µM; in [7], above 100 µM. Also, the TGI in assay [8], in [9] and in [10] was above 100 µM in each case.

(Values after PubChem BioAssay (NCI).)
